ChEMBL document CHEMBL1131869, “Chlorophenylmethyl benzothiadiazine dioxides derivatives: potent human cytomegalovirus inhibitors” (Bioorg Med Chem Lett, 1999)

Tests used:
Human betaherpesvirus 5 [1] = assay: Cytotoxicity against Human cytomegalovirus (AD169) strain(HCMV); format: functional
Human betaherpesvirus 5 [2] = assay: Antiviral activity against Human cytomegalovirus (AD169) strain(HCMV); format: functional, organism-based
Human betaherpesvirus 5 [3] = assay: Antiviral activity against clinical isolates of human origin CMV-strain B; format: functional, organism-based
Human betaherpesvirus 5 [4] = assay: Antiviral activity against clinical isolates of human origin CMV-strainA; format: functional, organism-based
Human betaherpesvirus 5 [5] = assay: Antiviral activity against clinical isolates of human origin CMV-strainC; format: functional, organism-based

SMILES	CC50 (Human betaherpesvirus 5 [1])	IC50 (Human betaherpesvirus 5 [2])	IC50 (Human betaherpesvirus 5 [3])	IC50 (Human betaherpesvirus 5 [4])	IC50 (Human betaherpesvirus 5 [5])
O=S1(=O)N=C(OCc2ccccc2)c2ccccc2N1Cc1ccccc1	> 66 µM	7.9 µM			
O=C1c2ccccc2N(Cc2cccc(Cl)c2)S(=O)(=O)N1Cc1ccccc1	> 60 µM	3.6 µM			
O=C1c2ccccc2N(Cc2ccc(Cl)cc2)S(=O)(=O)N1COCc1ccccc1	> 56 µM	6.7 µM			
O=C1c2ccccc2N(Cc2ccccc2Cl)S(=O)(=O)N1Cc1ccccc1	> 60 µM	4.8 µM			
O=C1c2ccccc2N(COCc2ccccc2)S(=O)(=O)N1COCc1ccccc1	> 57 µM	34 µM			
O=C1c2ccccc2N(Cc2ccccc2Cl)S(=O)(=O)N1COCc1ccccc1	> 56 µM	18 µM			
O=C1c2ccccc2N(Cc2ccc(Cl)cc2)S(=O)(=O)N1Cc1ccc(Cl)cc1	> 60 µM	3.6 µM			
O=C1c2ccccc2N(Cc2ccccc2)S(=O)(=O)N1Cc1ccccc1	> 66 µM	5.2 µM			
O=C1c2ccccc2N(Cc2ccccc2)S(=O)(=O)N1Cc1ccc(Cl)cc1	> 60 µM	6 µM			
O=C1c2ccccc2N(Cc2ccc(Cl)cc2)S(=O)(=O)N1Cc1ccccc1	> 60 µM	3.6 µM	1.2 µM	2.4 µM	2.4 µM
O=C1c2ccccc2N(Cc2ccccc2Cl)S(=O)(=O)N1Cc1ccccc1Cl	> 60 µM	3.6 µM			
O=C1c2ccccc2N(Cc2ccccc2)S(=O)(=O)N1Cc1ccccc1Cl	> 60 µM	12.1 µM			
Nc1nc2c(ncn2COC(CO)CO)c(=O)[nH]1 [GANCICLOVIR]	> 98 µM	5.9 µM	3.9 µM	5.9 µM	3.9 µM
